Reference: patent US20090062375A1, “METHODS AND COMPOSITIONS FOR THE TREATMENT OF VIRAL DISEASES” (priority 2005, published 2009)

What was measured:
[1] = test system: MMP-9 secretion by DV-infected iDC; experiment: Gelatin zymography of gelatinase (MMP-9) secretion by DV-infected iDC; assay type: cell-based, human; details: 10 μM SB203580 pretreatment, DV exposure 16 hr, zymography (FIG. 5C)
Experimental: FIG. 5. Immature DC (A-C) or HUVEC (D-F) were infected or not with DV and cells were collected 30 min post infection. Cells lysate were separated on 12.5% SDS-PAGE under reducing conditions. Proteins were electrophoretically transferred onto nitrocellulose membrane. The membrane was probed with (A and E) antibodies to total and to specific phosphorylated forms of ERK1/ERK2 antibodies to total and (B, D) to specific phosphorylated forms of p38 kinase. Horseradish peroxidase-conjugated goat anti-rabbit IgG was used as secondary antibody. Immature DC (C) or HUVEC (F) were pretreated or not with 10 μM SB 203580 prior to exposure with DV for 16 hr at 37° C. Supernatants were collected, lyophilized and assayed by zymography. Data are representative of 3 independent experiments.
Immature dendritic cells 5×10^5 cells/well were exposed to DV2-16681 for 2 hr, at MOI of 1 pfu/cell, in serum free RPMI 1640. Five extensive washes were done to eliminate free virus. […] Supernatants of DV infected iDC were collected and assessed for their viral activity. […]
DV infected iDC (5×10^5 cells) were cultured and collected in several time periods. Gelatinase secretion of cell supernatants was determined by sodium dodecyl sulfate-polyacrylamide gel electrophoresis (SDS-PAGE) zymography by using a gelatin substrate, as previously described (Missé´et al., 2001). […]

[2] = test system: HUVEC monolayers; experiment: HUVEC monolayer permeability assay (FITC-dextran, Transwell); assay type: cell-based, human; details: concentration not stated
Experimental: FIG. 6. Supernatant of DEN-V2 infected-iDC increase endothelial cell permeability in a MMP dependent fashion. Eighty percent confluent HUVEC were prepared on 24-well transwell polyethylene. (A) Either cell culture supernatants of uninfected iDC, DV-infected iDC, or recombinant TNF-α (20 ng/ml) were pre-treated or not with 20 nM SB-3CT for 24 hours before HUVEC exposure for 12 hours, HUVEC monolayer permeability was measured by using the FITC-Dextran detected with spectrofluorometer at an excitation wavelength of 485 nm and emission at 530 nm. […] Data are representative of 3 or 4 independent experiments.
FIG. 7. Supernatant of DEN-V2 infected-HUVEC increase endothelial cell permeability in a MMP-dependent fashion. IL-8 or TNF-α were used as controls. The induced permeability was inhibited as in experiment of FIG. 6 by SB-3CT.
Immature dendritic cells were cultured for 24 hr in serum-free RPMI 1640 conditioned medium. And then infected with DV, cells and supernatant were collected at different periods. […]
Permeability of HUVEC monolayers cultured on Transwell filters was assessed using FITC-labelled dextrans. […] The cells were removed and the absorbance of the FITC-dextran in the chamber was measured by spectrofluorometer (GENios-TECAN, Trappes, France) at an excitation wavelength of 485 nm and emission of 530 nm.

## C[S+]([O-])c1ccc(-c2nc(-c3ccc(F)cc3)c(-c3ccncc3)[nH]2)cc1 (centres unmarked) [SB203580, 4-(4-Fluorophenyl)-2-(4-methylsulfinylphenyl)-5-(4-pyridyl)1H-imidazole]
[1]
  increase in MMP-9 secretion by DV-infected iDC: totally abolished
[2]
  permeability of HUVEC increased by dengue virus-infected iDC supernatants (summary statement): inhibited
